We go through two molecules from patent US11920135B2, “Methods of treating VEGF/VEGFR resistant prostate, renal, or colorectal cancers using combination therapies” (University of Massachusetts, priority 2016, dated 2024).

The target in one test is NRP1 (Homo sapiens, UniProt O14786). Description: Ability to block VEGF-A binding to NRP. Conditions: FIG. 9H. An excerpt: FIG. 9H. Ability of VEGF antibodies to block VEGF-A binding to NRP.
Test [1] concerns human prostate tumor cells. Description: Sensitivity to bevacizumab of subpopulations sorted from freshly harvested prostate tumors (cell survival). The class given is cell-based. How it is done: FIG. 1B. Four subpopulations isolated based on expression of CD44 and CD24 were analyzed for their sensitivity to bevacuzimab. The percentage of live cells in three different areas was determined and mean is plotted as cell survival.
FIG. 1C. Cells from two human freshly harvested prostate tumors were sorted using ITGA6 and ITGB4 antibodies. The four subpopulations isolated based on expression of ITGA6 and ITGB4 were analyzed for their ability to form prostatospheres and sensitivity to bevacuzimab. The percentage of live cells in three different areas was determined and mean is plotted as cell survival.
Isolation of human prostate tumor cells and laser capture microscopy (LCM): Human prostate tumor tissue was obtained from UMASS Cancer Center Tissue Bank in compliance with the Institutional Review Board of the University of Massachusetts Medical School. The discarded but freshly resected, prostate tumors were digested with collagenase at 37° C. and epithelial cells were isolated using an EpCaM antibody. Frozen sections were microdissected by laser capture microscopy (Arcturus PixCell 2) to obtain pure populations of tumor cells of defined Gleason grades. […] Quantitative real-time PCR was done using the Taqman assay kit (Applied Biosystems). […]

The test system of test [2] is PC3 and C4-2 sensitive and resistant cells. Description: Colony formation and MTT viability of sensitive and resistant cell lines. The class given is cell-based. The procedure:
FIG. 1F. PC3 and C4-2 resistant and sensitive cell lines were analyzed for colony formation in the presence or absence of 10 μM Pazopanib.
FIG. 2C. Resistant and sensitive populations were analyzed for sensitivity to bevacuzimab (1 mg/ml) in the presence of either a NRP inhibitory peptide (c-furSEMA) or control peptide (c-SEMA).
FIG. 8F. PC3 and C4-2 resistant and sensitive cell lines were cultured in the presence of pazopanib (10 μM) or DMSO for 72 hours and cell viability is analyzed using the MTT assay.
FIG. 9D. PC3 and C4-2 resistant cells (10^3 cells per 60 mm plate) were cultured in the presence of either c-SEMA or c-furSEMA (1 μM), control IgG or NRP2 inhibitory antibody (1 μg/ml), or their respective controls for 10 days and colonies were stained with crystal violet. Colonies with more than 50 cells were counted.
(§1) Cell-based assays: The chemosensitivity of prostate cancer cells was determined using a standard 3-(4,5-dimethylthiazol-2-yl)-2,5-diphenyltetrazolium bromide (MTT) cytotoxicity assay. The assay was performed 72 hours after treatment. FACS was used to isolate cells based on their surface expression of CD44, CD24, and the α6 and β4 integrins. The detailed procedure for isolating LSC cells from PTEN^pc−/− mice using lineage markers (CD31, CD45, and Ter119), Sca-1, and CD49f is described, e.g., in Mulholland, D. J., Xin, L., Morim, A., Lawson, D., Witte, O., and Wu, H. 2009. Lin−Sca−1+CD49fhigh stem/progenitors are tumor-initiating cells in the Pten-null prostate cancer model. Cancer Res 69:8555-8562; Lawson, D. A., Xin, L., Lukacs, R. U., Cheng, D., and Witte, O. N. 2007. Isolation and functional characterization of murine prostate stem cells. Proc Natl Acad Sci USA 104:181-186.
The resistant cell lines generated are referred to as PC3-R and C4-2R. As controls, we also exposed these cell lines to control IgG (hIgG) and DMSO and refer to these as sensitive cell lines (PC3-S and C4-2S) (FIGS. 1D-1E).

A further test has as its system ERK. Description: ERK activation by immunoblotting with phospho-specific antibody. The class given is cell-based. The procedure: FIG. 2D. PC3-S cells were serum-deprived overnight and stimulated with VEGF (50 ng/ml) for 30 minutes in the presence or absence of bevacuzimab (5 mg/ml). The activation of ERK was analyzed by immunoblotting using a phospho-specific antibody.
FIG. 2F. Sensitive and resistant C4-2 cell lines were serum-deprived overnight and stimulated with VEGF (50 ng/ml) for 30 minutes in the presence of bevacuzimab (5 mg/ml). The activation of ERK and AKT was analyzed by immunoblotting using phospho-specific antibodies.
FIG. 2G. Sensitive and resistant PC3 cell lines were serum-deprived overnight and stimulated with VEGF (50 ng/ml) for 30 minutes in the presence of bevacuzimab (5 mg/ml). The activation of ERK and AKT was analyzed by immunoblotting using phospho-specific antibodies.
FIG. 6F. VEGF^high and VEGF^low cells were serum-deprived overnight and stimulated with VEGF (50 ng/ml) for 30 minutes in the presence or absence of bevacuzimab (5 mg/ml). The activation of ERK was analyzed by immunoblotting using a phospho-specific antibody.

A further test deals with PC3-R xenograft tumors. Nature of the test: PC3-R xenografts in NSG mice. Format: in vivo, mouse. How it is done:
FIGS. 4A-4F. Rac1 inhibition improves sensitivity to VEGF/VEGFR-targeted therapy. FIG. 4A. Tumor volume of mice that were treated with either control IgG or bevacuzimab. PC3-R cells were transfected with Rac1 shRNAs and these cells were implanted in NSG mice. Once tumors reached approximately 100 mm^3 in volume, mice were treated with either control IgG or bevacuzimab (10 mg/kg, intraperitoneally, twice weekly). Tumor volume was measured every third day.
FIG. 4B. Terminal deoxynucleotidyl transferase dUTP nick end labeling (TUNEL) for control and treated PC3-R xenograft tumors that were harvested. Apoptosis was analyzed using TUNEL staining. Scale bar is 10 μm.

The test system of test [3] is VEGFhigh and VEGFlow PC3 cells. Nature of the test: Proliferation of VEGFhigh and VEGFlow cells. The class given is cell-based. The conditions noted are these: bevacizumab 1 mg/ml, sunitinib 20 μM, 72 hours. The procedure:
FIG. 6E. VEGF^high and VEGF^low cells were incubated with bevacuzimab (1 mg/ml) or sunitinib (20 μM) for 72 hours and their proliferation was assayed.

Test [4] relates to androgen-independent prostate cancer. Conditions: bevacizumab monotherapy; cited from earlier work.
Test [5] has as its system PC3 and C4-2 sensitive and resistant cells. Nature of the test: Prostatosphere formation. The class given is cell-based. Conditions: resistant cells (PC3-R); EHT1864 20 μM. The procedure:
FIG. 2B. Resistant and sensitive populations were analyzed for prostatosphere formation in the presence of either a NRP inhibitory peptide (c-furSEMA) or control peptide (c-SEMA).
FIG. 3H. PC3-R cells were stimulated with VEGF in the presence or absence of a Rac1 inhibitor (EHT1864; 20 μM) and the effect on prostatosphere formation was measured.
FIG. 6I. Prostatosphere formation by VEGF^high cells in the presence or absence of EHT1864 was quantified.

The test system of test [6] is Lin-Sca+CD49fhigh cells (LSC cells). Description: Freshly sorted LSC cells from PTENpc-/- mice: proliferation, prostatosphere formation, qPCR. Format: cell-based, mouse. The conditions noted are these: Rac1 inhibitor EHT1864 (FIG. 3I). How it is done: FIG. 3I. Freshly sorted Lin^−Sca^+CD49f^high cells (LSC cells) from PTEN^pc−/− mice were used to measure the effect of EHT1864, mcr84 or sunitinib on cell proliferation and prostatosphere formation.
FIG. 3J. Freshly sorted LSC cells from PTEN^pc−/− mice were treated with EHT1864 (20 μM) and expression of genes associated with stem cells and VEGF signaling was quantified by qPCR.
as §1

Test [7] concerns PTENpc-/- prostate tumors. Nature of the test: Pten pc-/- transgenic mouse model of prostate cancer. The class given is in vivo. Conditions: for number of LSC cells: from 6 weeks of age. The procedure:
FIG. 4C. Six-week old Pten^pc−/− mice were injected (i.p.) with either mcr84 (10 mg/kg) or EHT1864 (10 mg/kg) twice weekly for three weeks. The GU tract was harvested and total weight was measured. The prostate glands were separated and combined weight of all the lobes was measured. The prostate glands were digested and LSC cells (Lin^−Sca^+CD49f^high) were isolated by FACS.
FIG. 4D. Six-week old Pten^pc−/− mice were injected (i.p.) with either mcr84 (10 mg/kg) or EHT1864 (10 mg/kg) twice weekly for three weeks. The GU tract was harvested and total weight was measured. The prostate glands were separated and combined weight of all the lobes was measured.
FIG. 4E. Hematoxylin and eosin (H&E) staining of prostate tumors from Pten^pc−/− mice described in FIG. 4C, and the percentage of prostate glands showing either PIN or well-differentiated adenocarcinoma (AdCa). Scale bar is 100 μm.
FIG. 4F. TUNEL staining of tumor sections of prostate tumors from Pten^pc−/− mice described in FIG. 4C to detect apoptosis. Scale bar is 100 μm.
FIG. 7C. Six-week old Pten^pc−/− mice were injected (i.p.) with either mcr84 (10 mg/kg) twice weekly for three weeks. The prostate glands were harvested and immunostained using a myc antibody.
To pursue this hypothesis further, PTEN^pc−/− transgenic mice were treated with the Rac1 inhibitor (EHT1864), mcr84 or both at the start of puberty (6 weeks). […] We also compared the impact of mono- and combined therapy on PTEN^pc−/− tumors by calculating the weights of the isolated GU tracts and prostate lobes. […] Moreover, a mass of cells in the lumen of the gland was evident in mice that received the combined treatment. […] These tumor groups were also stained with CD31. Six-week old Ptenpc−/− mice were injected (i.p.) with either mcr84 (10 mg/kg) or EHT1864 (10 mg/kg) twice weekly for three weeks. The prostate glands were harvested and angiogenesis was analyzed using CD31 staining.

[8] abbreviates: Rac1-depleted (shRNA) PC3-R xenografts plus bevacizumab.
Setting [9] is: 10 mg/kg i.p. twice weekly for three weeks.

Take bevacizumab: the “blocking of the binding of VEGF-A to NRP1” value in the test with NRP1 is recorded as “Neither mcr84 nor bevacizumab blocked”. Also, the “resistance to bevacizumab treatment (cell survival)” value in test [1] (CD44+CD24- (P1) subpopulation versus other subpopulations) is “the only subpopulation that exhibited resistance”. In addition, in test [1] (high CD49f population compared to low CD49f population), the “resistance to bevacizumab treatment (cell survival)” value was “exhibited resistance”. Besides, in [2] (PC3-R cells with P-Rex1 shRNA, bevacizumab 1 mg/ml, sunitinib 20 μM), the “sensitivity of resistant cells after down-regulation of P-Rex1” value is reported as “increased their sensitivity”. The “sensitivity to bevacizumab after down-regulation of NRP2 or NRP1” value in test [2] (PC3-R cells, shRNA) is “increased sensitivity”. Moreover, the “ability of the resistant cell lines to form colonies or survive” value in test [2] (PC3-R, C4-2R, bevacizumab 1 mg/ml, sunitinib 20 μM, 10 days colonies, 72 hours MTT) was “Neither bevacizumab nor sunitinib inhibited”. The “resistance to inhibition of viability and prostatosphere formation after expression of constitutively active MEK” value in test [2] (sensitive cells) is reported as “increased their resistance”. Also, in [2] (sensitive cells, in the presence of VEGF), the “resistance to bevacizumab after ectopic expression of NRP2” value is recorded as “induces resistance”. The “basal ERK activation” value in the test with ERK (VEGFhigh cells) is listed as “resistant”. Besides, the “VEGF-induced ERK activation” value with ERK (VEGFlow cells) is “inhibited”. The ERK activation entry in the test with ERK (resistant cells, bevacizumab 5 mg/ml) is given as “unable to inhibit ERK activation”. Also, in the test on PC3-R xenograft tumors (setting [8]), the “apoptosis in residual tumors (TUNEL)” value is on record as “contained mostly apoptotic cells” and the tumor volume result is “significantly better decrease in tumor volume”. The tumor growth entry in the test with PC3-R xenograft tumors (control PC3-R xenografts, bevacizumab alone, 10 mg/kg i.p. twice weekly) was “no significant effect on tumor growth”. Further, the “resistance of VEGFhigh cells compared to VEGFlow cells (proliferation)” value in test [3] was “more resistant”. Further, in test [4], the “patients exhibiting a decline in PSA” value is on record as 27% and the “response based on RECIST criteria” value is on record as “no response noted”.
As for `O=c1cc(CN2CCOCC2)occ1OCCCCCSc1ccnc2cc(C(F)(F)F)ccc12` [EHT1864], the number of prostatospheres entry in test [5] is recorded as “reduced the number of prostatospheres”. For the same molecule, the “sensitivity of LSC cells to mcr84 and sunitinib” value in test [6] is “increased the sensitivity of LSC cells”. Moreover, the “angiogenesis (CD31 staining)” value in test [7] (setting [9]) is given as “No significant difference in staining”. The “number of LSC cells” value was “reduced the number of LSC cells significantly” in test [7] (setting [9]) and “significantly reduced” in test [7] (10 mg/kg i.p. twice weekly for three weeks, listed as RACi). In addition, in test [7] (H&E staining), the “pathological examination of prostate tumors (PIN or adenocarcinoma)” value is given as “progressed to well-differentiated adenocarcinomas”.
